According to ChEMBL document CHEMBL1149494, “Synthesis and structure-activity relationships of retro bis-aminopyrrolidine urea (rAPU) derived small-molecule antagonists of the melanin-concentrating hormone receptor-1 (MCH-R1). Part 2” (Bioorg Med Chem Lett, 2006):

Assays:
Format in all cases: ADME, organism-based
Rattus norvegicus [1] = species: Rattus norvegicus; test: Drug level in rat brain; settings: in vivo
Rattus norvegicus [2] = species: Rattus norvegicus; test: Drug level in rat plasma; settings: in vivo
[3] = Ratio of drug level in rat brain against plasma; settings: brain and plasma, read-out: BPR

Structure (SMILES) | Drug uptake (Rattus norvegicus [1]) | Drug uptake (Rattus norvegicus [2]) | Kp [3]
CCc1ccc(-c2ccc(C(=O)N(C)[C@H]3CCN(C(=O)N4CC[C@@H](N(C)C5CCOCC5)C4)C3)s2)cc1 | 21.8 ng/g | 6.7 ng/g | 3.4
CCc1ccc(-c2ccc(C(=O)N(C)[C@H]3CCN(C(=O)N4CC[C@@H](N5CCCCC5)C4)C3)cc2)cc1 | 38.3 ng/g | 6.2 ng/g | 6.5
CCc1ccc(-c2ccc(C(=O)N(C)[C@H]3CCN(C(=O)N4CC[C@@H](NC5CCOCC5)C4)C3)cc2)cc1 | 5.1 ng/g | 14.5 ng/g | 0.4
CCc1ccc(-c2ccc(C(=O)N(C)[C@H]3CCN(C(=O)N4CC[C@@H](NC5CCOCC5)C4)C3)s2)cc1 | 17.3 ng/g | 30.5 ng/g | 0.6
